One may read the IC50 as the concentration that gives 50% inhibition.

Where “and” joins values, the source holds several entries; their conditions need not be identical. Equal entries are not always repeated.

The values below come from ChEMBL document CHEMBL3639007, “Cyclohexyl amide derivatives as CRF receptor antagonists” (2014).

Experiment [1] concerns the target T1, Corticotropin-releasing factor receptor 1 (Homo sapiens, UniProt P34998).
T1 sequence (P34998 whole entry): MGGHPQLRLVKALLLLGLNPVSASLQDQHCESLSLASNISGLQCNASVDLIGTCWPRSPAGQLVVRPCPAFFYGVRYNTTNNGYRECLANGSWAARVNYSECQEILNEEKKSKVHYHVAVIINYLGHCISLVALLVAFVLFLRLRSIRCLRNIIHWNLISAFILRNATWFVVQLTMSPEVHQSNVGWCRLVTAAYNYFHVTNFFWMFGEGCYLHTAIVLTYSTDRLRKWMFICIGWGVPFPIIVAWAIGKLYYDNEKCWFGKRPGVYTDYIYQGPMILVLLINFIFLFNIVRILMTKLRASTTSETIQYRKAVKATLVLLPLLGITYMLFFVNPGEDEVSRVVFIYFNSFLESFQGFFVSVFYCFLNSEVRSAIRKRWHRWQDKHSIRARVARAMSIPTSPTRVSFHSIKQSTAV
Description: (§1) Homogeneous Time-Resolved Fluorescence Assay: Chinese hamster ovary (CHO) cells expressing either the human or rat recombinant CRF-1 or human CRF-2alpha (Chen et al, Proc Natl Acad Sci USA 90, 8967-8971, 1993; Liaw et al, Endocrinology 137, 72-77, 1996) are propagated in Dulbecco's modified Eagle medium supplemented with 10% foetal calf serum, non-essential amino acids, 100 U/ml penicillin, 100 mg/l streptomycin and 1 g/l geneticin. CHO cells expressing the rat CRF-2beta receptor (Wu et al, Endocrinology 148, 1675-1687, 2007) are propagated in HAM's-F12 Glutamax supplemented with 10% foetal calf serum, 100 IU/ml penicillin, 100 mg/l streptomycin, 600 ug/ml hygromycin, 10 ug/ml blasticidin and induced with 1 ug/ml of tetracyclin for 24 hours prior to experimentation. For cyclic AMP determinations the Homogeneous Time-Resolved Fluoresce (HTRF) CAMP dynamic 2 kit (Cisbio International, France) was used as per manufacturers' instructions. The experiment is classed as cell-based. (In TR-FRET formats the signal depends on donor and acceptor labels being close together.)

Experiment [2] concerns the target T2, Corticotropin-releasing factor receptor 2 (Homo sapiens, UniProt Q13324).
T2 sequence (Q13324 whole entry): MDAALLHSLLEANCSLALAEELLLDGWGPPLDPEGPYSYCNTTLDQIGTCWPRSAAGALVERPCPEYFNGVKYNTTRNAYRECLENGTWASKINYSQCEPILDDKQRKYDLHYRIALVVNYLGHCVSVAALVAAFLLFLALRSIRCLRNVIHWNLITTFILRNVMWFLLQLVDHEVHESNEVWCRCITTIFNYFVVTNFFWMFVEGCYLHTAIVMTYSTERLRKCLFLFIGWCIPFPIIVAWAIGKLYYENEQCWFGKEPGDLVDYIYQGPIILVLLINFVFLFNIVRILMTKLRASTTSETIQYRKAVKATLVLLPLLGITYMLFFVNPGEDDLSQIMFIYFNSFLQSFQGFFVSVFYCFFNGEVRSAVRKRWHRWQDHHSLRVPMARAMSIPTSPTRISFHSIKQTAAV
Described as §1. Type of experiment: cell-based.

For `Cc1ncc(Cl)cc1C(=O)N[C@H]1CC[C@H](Cn2nc(C)c(Cl)c2C)CC1`, in experiment [1], the IC50 came out at 256 nM.
Turning to `CCc1cc(C)n(C[C@H]2CC[C@H](NC(=O)c3cc(C(F)(F)F)ccc3Cl)CC2)n1`, the IC50 in experiment [2] was determined as 2.03 µM.
`Cc1ncc(Cl)cc1C(=O)N[C@H]1CC[C@@H](Cn2nc(-c3ccc(F)cc3)cc2C)CC1`: the IC50 is 4.63 µM in experiment [2] and 180 nM in experiment [1].
For the compound `CCc1cc(CC)n(C[C@H]2CC[C@H](NC(=O)c3cc(Cl)cnc3C)CC2)n1`, the IC50 in experiment [1] is 160 nM.
`O=C(N[C@H]1CC[C@H](Cn2cc(Cl)c(CO)n2)CC1)c1cc(C(F)(F)F)ccc1Cl`: the IC50 was determined as 4.85 µM in experiment [2] and 95 nM in experiment [1].
For `Cc1ncc(Cl)cc1C(=O)N[C@H]1CC[C@@H](Cn2nc(-c3ccccc3)cc2C)CC1`, the IC50 in experiment [2] is 4.94 µM.
For `COc1cc(C)nn1C[C@H]1CC[C@H](NC(=O)c2cc(C(F)(F)F)ccc2Cl)CC1`, in experiment [1], the IC50 amounted to 67 nM.
Turning to `CCc1[nH]nc(NC[C@H]2CC[C@H](NC(=O)c3cc(Cl)cnc3C)CC2)c1C`, the IC50 in experiment [2] is 4.88 µM; in experiment [1], 134 nM.
With `Cc1cn(C[C@H]2CC[C@H](NC(=O)c3cc(C(F)(F)F)ccc3Cl)CC2)nc1C`, the IC50 in experiment [1] is 167 nM.
`Cc1ncc(Cl)cc1C(=O)N[C@H]1CC[C@H](Cn2nc(-c3cccnc3)cc2C)CC1`: the IC50 in experiment [2] came out at 3.74 µM; in experiment [1] it was 142 nM.
Regarding `CCc1cc(CC)n(C[C@H]2CC[C@H](NC(=O)c3cc(C(F)(F)F)ccc3Cl)CC2)n1`, the IC50 in experiment [1] is 21 nM.
As for `CCc1cc(C)nn1C[C@H]1CC[C@H](NC(=O)c2cc(C(F)(F)F)ccc2Cl)CC1`, in experiment [1], the IC50 came out at 22 nM.
Take `COc1ccc(-c2cc(C)n(C[C@H]3CC[C@H](NC(=O)c4cc(C(F)(F)F)ccc4Cl)CC3)n2)cc1`: the IC50 in experiment [1] came to 82 nM.
Turning to `Cc1cc(C)n(C[C@H]2CC[C@H](NC(=O)c3cc(C(F)(F)F)cnc3C)CC2)n1`, the IC50 in experiment [1] was 634 nM.
For the compound `COc1ccc(-c2c(NC[C@H]3CC[C@H](NC(=O)c4cc(C(F)(F)F)ccc4Cl)CC3)n[nH]c2C)c(Cl)c1`, in experiment [1], the IC50 was 35 nM.
As to `Cc1ncc(Cl)cc1C(=O)N[C@H]1CC[C@H](Cn2nc(CO)cc2C)CC1`, the IC50 in experiment [1] turned out to be 665 nM.
With `Cc1cnn(C[C@H]2CC[C@H](NC(=O)c3cc(C(F)(F)F)ccc3Cl)CC2)c1`, the IC50 in experiment [1] was 132 nM.
Take `Cc1ncc(Cl)cc1C(=O)N[C@H]1CC[C@H](Cn2cc3c(n2)CCCC3)CC1`: the IC50 in experiment [1] was 318 nM.
For `Cc1cc(C)n(C[C@H]2CC[C@H](NC(=O)c3cc(Cl)cnc3C)CC2)n1`, in experiment [1], the IC50 was 88 nM and 262 nM.
Same read-out and setting: for `Cc1cc(-c2ccc3c(c2)OCO3)nn1C[C@H]1CC[C@H](NC(=O)c2cc(C(F)(F)F)ccc2Cl)CC1` the value was 59 nM; for `Cc1cc(CO)n(C[C@H]2CC[C@H](NC(=O)c3cc(Cl)cnc3C)CC2)n1`, 6960 nM; for `O=C(N[C@H]1CC[C@H](Cn2ncc3c2CCC3)CC1)c1cc(C(F)(F)F)ccc1Cl`, 170 nM.
